These results are taken from patent US20240424115A1, “LONG-ACTING INTERLEUKIN-15 RECEPTOR AGONISTS AND RELATED IMMUNOTHERAPEUTIC COMPOSITIONS AND METHODS” (Nektar Therapeutics, priority 2017, published 2024).

Data set [1] can be described thus: PK (MRT) of long-acting IL-15 receptor agonists (Table 2B). In kind it is in vivo. As to conditions: species not stated.
A short description of data set [2]: Single dose PK study in rats (plasma concentration). As to conditions: Sprague Dawley rats, single i.v. 10, 75 and 150 μg/kg. In kind it is in vivo. How it is done:
Following administration, blood was collected at days 1-7 post administration (with multiple samples collected over the first 24 hours following administration). […]

The next data set concerns CD4, CD8, and NK cells. Put plainly: In vivo IL-15 signaling (STAT5 phosphorylation in lymphocytes) in non-human primates. Set-up: species or system cynomolgus monkeys. As to conditions: NHP. As to the method:
In the study, cynomolgus monkeys (cyno), one female and one male, were each intravenously administered a single dose of Conjugate 2 (0.5 mg/kg). A series of blood samples were taken from each animal both prior to treatment (day-6 and-1) and at multiple intervals following treatment for assessment by flow cytometry of STAT5 phosphorylation in various types of lymphocytes (CD4, CD8, and NK cells). Results are provided in FIGS. 9A (CD4), 9B (CD8), and 9C (NK).
(§1) Cynomolgus monkeys (n=3-4 males), were administered a single intravenous injection of Conjugate 1 at 0.003, 0.01, 0.1 mg/kg or a vehicle control. Blood samples were collected at the indicated time points pre and post dose (−5, −2, 1, 2, 3, 4, 5, 6, 7, 10, 14, 17 days) and subjected to flow cytometric analysis to examine pharmacodynamic effects within lymphocyte populations. Proliferation (% Ki-67) and JAK/STAT signaling (% pSTAT5) for NK cells, CD8 T cells, and CD4 T cells were examined, with the results shown in FIGS. 45A-C and FIGS. 46A-C, respectively.

Data set [3] has as its system NK cells, CD8 T cells, CD4 T cells. Put plainly: In vivo PD study in non-human primates: lymphocyte cell numbers and proliferation. More on the design: species or system cynomolgus monkeys. How it is done: In the study, cynomolgus monkeys, one female and one male, were administered 500 μg/kg of Conjugate 2 intravenously. A series of blood samples were taken from each animal before treatment (day-6 and -1) and at multiple intervals following single dose treatment for assessment by flow cytometry of lymphocyte cell numbers (NK cells, CD8 T-cells, etc.) and activation.
NK cell counts were determined to assess the ability of exemplary Conjugate 2 to induce sustained NK cell proliferation in non-human primates; results are shown in FIGS. 16A and 16B. NK cells and their proliferation in blood from cynomolgus monkey were identified by flow cytometry. Acquisition and analysis of NK cells (CD45+ CD3− CD16+) and their proliferation status (CD45+CD3−CD16+ Ki67+) were conducted using BD FACS DIVA software. Absolute values for NK cells and proliferating NK cells were used to calculate % Ki67 positivity within the NK population. Pre and post-treatment values were plotted using Prism.
CD8 T cell counts were also determined as illustrated in FIG. 17 for each animal from pre-dose to 14 days post-administration. Specifically, CD8 T cells were defined as CD45+CD3+CD4−CD8+. Blood from the monkeys was also subject to immunophenotyping as previously described. In monkey, CD8 T cells increased in a sustained manner, an effect lasting for at least 10 days. This plot further exemplifies the ability of an exemplary long acting IL-15 receptor agonist, Conjugate 2, to induce proliferation and sustained increases in numbers of CD8 T-cells post-administration.
In monkey, CD8 TEM cells were defined as CD45+CD3+CD4−CD8+CD45Ra−CD197− and CD8 Tcm were defined as CD45+CD3+CD4−CD8+CD45Ra−CD197+. Immunophenotyping was conducted by flow cytometry with sample acquisition on DIVA software and data analysis on Flowjo software. Graphs were plotted using Prism. […] The figures indicate that both CD8 effector and central memory T cell populations proliferate in response to exemplary Conjugate 2.
In this study, cynomolgus monkeys (cyno), one female and one male, were each intravenously administered a single dose of Conjugate 1 (0.1 mg/kg). A series of blood samples were taken from each animal over a 14-day time course and subjected to flow cytometry analysis of various lymphocytes (CD8 T cells, Ki-67 percent positivity within total CD8, CD8 central memory T cells (TCM) and CD8 effector memory T cells (Tem), NK cells and Ki-67 percent positivity of NK cells).
as §1
In cynomolgus monkey, CD8 naïve and memory subpopulations were defined by CD45Ra, CD197 and CD95. […] Within the CD8 Tem, […] and Tscm populations, Conjugate 1 induced robust % Ki-67 expression in a dose dependent manner with detectable increases in proliferation marker positivity starting as early as day 2, reaching a maximum at day 5 and returning to baseline between days 10-14. The Ki-67 expression and kinetics within the CD8 populations support the sustained increase in CD8 T cell numbers shown in Example 27 and FIGS. 47A-D.

Where [4] appears, read: cynomolgus monkey, each dose level, vs vehicle.

Regarding mono-mPEG-SBA40K-IL-15 [Conjugate 1], in data set [1], the “PK (MRT)” value is on record as 21 h. For the same substance, the half-life entry in data set [2] is reported as “approximately 18 hours”. Besides, the “pSTAT5 in CD8 T cells” value in the data set with CD4, CD8, and NK cells (0.1 and 0.01 mg/kg) is “dose-dependent increase in pSTAT5”. Besides, in the data set with CD4, CD8, and NK cells (single i.v.), the “dose level at which increase in % pSTAT5 in NK cells can be detected” value was found to be 0.001 mg/kg. In data set [3] (NHP, 0.1 and 0.01 mg/kg), the “time NK cell numbers were sustained” value is given as “up to 14 days”. Also, in data set [3] (NHP, highest dose level 0.1 mg/kg), the “CD4 T cell numbers, % Ki-67 and % pSTAT5” value is “induced a small increase in CD4 T cell numbers, % Ki-67 and % pSTAT5”. In data set [3] (NHP, single i.v.), the “day of maximal total CD8 T cell numbers” value was about 5 days, the “dose at which % Ki-67 positivity in CD8 T cells is detectable” value worked out at 0.01 mg/kg, the “dose at which effect on total CD8 cell numbers can be detected” value came out at 3 µg/kg and the “dose level at which a significant increase in % Ki-67 in NK cells can be detected” value was determined as 1 µg/kg. Moreover, in data set [3] (NHP, single i.v.), the “first detectable increase in % Ki-67 in CD8 Tem, Tcm and Tscm” value amounted to 2 days; the “lowest dose level yielding a significant increase in NK cells” value is on record as 0.01 mg/kg; the “maximum of % Ki-67 in CD8 Tem, Tcm and Tscm” value came to 5 days; the “return of % Ki-67 in CD8 Tem, Tcm and Tscm to baseline” value was 10 to 14 days. Further, in data set [3] (NHP, single i.v.), the “time Ki-67 expression in NK cells can be sustained” value is reported as “up to 14 days”, the “time increase in total CD8 T cells is sustained” value was “over seven” and the “time of maximum NK cell numbers after dosing” value was “five”. For the same substance, in data set [3] (cyno, single i.v. 0.1 mg/kg), the “increase in CD8 T cell numbers” value was 7-10 X, the “increase in CD8 Tcm numbers” value is recorded as 27-30 X, the “increase in CD8 Tem numbers” value was 21-33 X and the “increase in NK cells” value is recorded as 9-10 X. Besides, in data set [3] (setting [4]), the “time increase in CD8 T cell numbers was sustained” value was “at least 10 days” and the “time increase in NK cell numbers was sustained” value is “at least 14 days”.
